From ChEMBL document CHEMBL4304766, “DMSO-Perturbing Assay for Identifying Promiscuous Enzyme Inhibitors” (ACS Med Chem Lett, 2019)
The source made the active and inactive calls. The calls are words filed in the database; no cut-off is given here.

Legend:
Bacillus cereus [1] = experiment: Inhibition of Bacillus cereus 569/H9 beta-lactamase incubated for 10 mins followed by nitrocefin substrate challenge and measured for 5 mins by spectrophotometric analysis
[2] = biological target: Chymotrypsinogen A (Bos taurus) (UniProt P00766); experiment: (§1) Inhibition of alpha-chymotrypsin in bovine pancreas using SPpNA as substrate pretreated with enzyme for 30 mins followed by substrate addition and measured for 12 mins by spectrophotometric analysis
Beta-lactamase [3] = biological target: T1, Beta-lactamase (Enterobacter cloacae, UniProt P05364); experiment: Inhibition of Enterobacter cloacae beta-lactamase incubated for 10 mins followed by nitrocefin substrate challenge and measured for 5 mins by spectrophotometric analysis
T1 sequence (P05364 whole entry): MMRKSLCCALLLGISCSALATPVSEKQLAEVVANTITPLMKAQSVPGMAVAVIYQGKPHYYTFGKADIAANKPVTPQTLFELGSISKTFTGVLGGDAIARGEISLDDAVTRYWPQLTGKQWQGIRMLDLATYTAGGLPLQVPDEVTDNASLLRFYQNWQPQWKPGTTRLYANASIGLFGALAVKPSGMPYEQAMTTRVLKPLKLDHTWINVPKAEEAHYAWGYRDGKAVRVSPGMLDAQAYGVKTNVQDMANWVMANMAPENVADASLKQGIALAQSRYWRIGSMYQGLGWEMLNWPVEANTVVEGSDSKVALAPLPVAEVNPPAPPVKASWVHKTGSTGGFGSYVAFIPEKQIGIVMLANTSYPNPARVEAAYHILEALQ

Beta-lactamase [4] = biological target: T1, Beta-lactamase; experiment: (§2) Inhibition of Enterobacter cloacae beta-lactamase incubated for 10 mins followed by nitrocefin substrate challenge and measured for 5 mins in presence of 1 mM DTT by spectrophotometric analysis
[5] = biological target: Chymotrypsinogen A (Bos taurus) (UniProt P00766); experiment: Inhibition of bovine pancreas alpha-chymotrypsin at concentration of 6 uM using SPpNA as substrate treated with enzyme for 30 mins following enzyme incubation with 0.7 to 2.1 M DMSO for 5 mins followed by substrate addition and measured for 12 mins by DMSO-perturbation assay
Beta-lactamase [6] = biological target: T1, Beta-lactamase; experiment: Inhibition of Enterobacter cloacae beta-lactamase incubated for 10 mins followed by nitrocefin substrate challenge and measured for 5 mins in presence of Triton X-100 by spectrophotometric analysis
[7] = biological target: Chymotrypsinogen A (Bos taurus) (UniProt P00766); experiment: Inhibition of bovine pancreas alpha-chymotrypsin at concentration of 6 nM using SAAPPpNA as substrate treated with enzyme for 30 mins following enzyme incubation with 0.7 to 2.1 M DMSO for 5 mins followed by substrate addition and measured for 12 mins by DMSO-perturbation assay
[8] = Drug metabolism in DMSO-d6/potassium phosphate buffer assessed as drug recovery with small amount of metabolite formation by 1H-NMR analysis
[9] = biological target: Beta-lactamase (Enterobacter cloacae) (UniProt P05364); experiment: as §2
Chain of Beta-lactamase (Enterobacter cloacae) (P05364 21-381 limits assumed): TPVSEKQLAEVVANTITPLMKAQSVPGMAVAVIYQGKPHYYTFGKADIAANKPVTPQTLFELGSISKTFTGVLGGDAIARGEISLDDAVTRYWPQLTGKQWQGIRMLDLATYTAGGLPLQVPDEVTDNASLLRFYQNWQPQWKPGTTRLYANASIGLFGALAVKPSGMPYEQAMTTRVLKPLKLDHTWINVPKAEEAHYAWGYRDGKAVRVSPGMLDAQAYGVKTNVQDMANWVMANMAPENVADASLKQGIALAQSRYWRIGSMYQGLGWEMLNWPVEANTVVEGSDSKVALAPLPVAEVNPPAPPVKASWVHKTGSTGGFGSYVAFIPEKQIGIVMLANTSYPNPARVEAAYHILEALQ

Chymotrypsinogen A [10] = biological target: T2, Chymotrypsinogen A (Bos taurus, UniProt P00766); experiment: as §1
[11] = biological target: Chymotrypsinogen A (Bos taurus) (UniProt P00766); experiment: Inhibition of alpha-chymotrypsin in bovine pancreas at 300 uM using SPpNA as substrate pretreated with enzyme for 30 mins followed by substrate addition and measured for 12 mins by spectrophotometric analysis relative to control
[12] = biological target: Beta-lactamase (Enterobacter cloacae) (UniProt P05364); experiment: Inhibition of Enterobacter cloacae beta-lactamase at 200 uM incubated for 10 mins followed by nitrocefin substrate challenge and measured for 5 mins in presence of 1 mM DTT by spectrophotometric analysis relative to control
Bacillus cereus [13] = experiment: Inhibition of Bacillus cereus 569/H9 beta-lactamase treated with enzyme for 10 mins following enzyme incubation with 0.7 to 2.1 M DMSO for 5 mins followed by nitrocefin substrate challenge and measured for 5 mins by DMSO-perturbation assay
Chymotrypsinogen A [14] = biological target: T2, Chymotrypsinogen A; experiment: Inhibition of alpha-chymotrypsin in bovine pancreas using SPpNA as substrate pretreated with enzyme for 30 mins followed by substrate addition and measured for 12 mins in presence of Triton X-100 by spectrophotometric analysis
[15] = biological target: Beta-lactamase (Enterobacter cloacae) (UniProt P05364); experiment: Inhibition of Enterobacter cloacae beta-lactamase at 500 uM incubated for 10 mins followed by nitrocefin substrate challenge and measured for 5 mins by spectrophotometric analysis relative to control

COc1ccc2c(c1)c(CC(=O)O)c(C)n2C(=O)c1ccc(Cl)cc1
inhibition (Bacillus cereus [1]): inactive | inhibition [2]: inactive

CCCCCCCCCCCCCCCC(=O)OC[C@H](O)[C@H]1OC(=O)C(O)=C1O
inhibition (Bacillus cereus [1]): inactive | inhibition [2]: inactive

O=c1c(O)c(-c2ccc(O)c(O)c2)oc2cc(O)cc(O)c12 [QUERCETIN]
IC50 (Beta-lactamase [3]; read-out: IC50): 85 µM | IC50 (Beta-lactamase [4]): 224 µM | inhibition [5]: Active | IC50 (Beta-lactamase [6]): > 500 µM | inhibition [7]: Active | Drug metabolism [8]: Metabolite detected

CC1(C)[C@@H](O[C@H]2O[C@H](C(=O)O)[C@@H](O)[C@H](O)[C@H]2O[C@@H]2O[C@H](C(=O)O)[C@@H](O)[C@H](O)[C@H]2O)CC[C@]2(C)[C@H]3C(=O)C=C4[C@@H]5C[C@@](C)(C(=O)O)CC[C@]5(C)CC[C@@]4(C)[C@]3(C)CC[C@@H]12
inhibition (Bacillus cereus [1]): inactive

O=C(CCc1ccc(O)cc1)c1c(O)cc(O)cc1O [PHLORETIN]
IC50 (Beta-lactamase [3]; read-out: IC50): 496 µM | inhibition [9]: Active | IC50 (Chymotrypsinogen A [10]; read-out: IC50): > 300 µM | inhibition [11]: 9.9%

O=C(O)c1cc(=O)c2c(OCC(O)COc3cccc4oc(C(=O)O)cc(=O)c34)cccc2o1
inhibition (Bacillus cereus [1]): inactive | inhibition [2]: inactive

CC(=O)c1c(O)c(C)c(O)c(Cc2c(O)c3c(c(C(=O)/C=C/c4ccccc4)c2O)OC(C)(C)C=C3)c1O [ROTTLERIN]
inhibition [12]: < 50% | IC50 (Beta-lactamase [3]; read-out: IC50): 96 µM | IC50 (Chymotrypsinogen A [10]): Nd(Insoluble) | IC50 (Beta-lactamase [6]): 142 µM | Drug metabolism [8]: Metabolite detected

CC1(C)S[C@@H]2[C@H](NC(=O)Cc3ccccc3)C(=O)N2[C@H]1C(=O)O [PENICILLIN G SODIUM]
IC50 (Beta-lactamase [3]; read-out: IC50): 7.2 µM | IC50 (Beta-lactamase [6]): 3.6 µM

CC(C)C[C@@H](N)C(=O)N[C@@H](Cc1ccccc1)C(=O)NCc1ccc(F)cc1
inhibition [5]: Active

O=C(O)[C@H]1/C(=C/CO)O[C@@H]2CC(=O)N21
inhibition (Bacillus cereus [13]): Active

O=c1cc(-c2ccc(O)c(O)c2)oc2ccccc12
IC50 (Beta-lactamase [3]): Nd(Insoluble) | IC50 (Chymotrypsinogen A [10]; read-out: IC50): 226 µM | IC50 (Chymotrypsinogen A [14]): 270 µM

O=C(O[C@@H]1Cc2c(O)cc(O)cc2O[C@@H]1c1cc(O)c(O)c(O)c1)c1cc(O)c(O)c(O)c1
inhibition (Bacillus cereus [1]): inactive

O=C(O)[C@H]1O[C@@H](Oc2cc3oc(-c4ccccc4)cc(=O)c3c(O)c2O)[C@H](O)[C@@H](O)[C@@H]1O
inhibition (Bacillus cereus [1]): inactive

Oc1cc(O)c2c(c1)O[C@H](c1ccc(O)c(O)c1)[C@H](O)C2
inhibition (Bacillus cereus [1]): inactive

C[C@@H]1O[C@@H](OC[C@H]2O[C@@H](Oc3c(-c4ccc(O)c(O)c4)oc4cc(O)cc(O)c4c3=O)[C@H](O)[C@@H](O)[C@@H]2O)[C@H](O)[C@H](O)[C@H]1O [RUTIN]
IC50 (Beta-lactamase [3]; read-out: IC50): > 500 µM | IC50 (Chymotrypsinogen A [10]; read-out: IC50): 296 µM | IC50 (Chymotrypsinogen A [14]): 281 µM | inhibition [5]: Active | inhibition [15]: 15%
